In patent EP3368040B1, “METHODS AND COMPOSITIONS FOR RECOVERY FROM STROKE” (Eip Pharma, LLC, priority 2015, dated 2017):

Key:
[1] = tested on: animal models of stroke; conditions: administered 24-hours after stroke; Piao et al. 2003; cited from earlier work
[2] = tested on: cytokine production; conditions: inhibition of cytokine production; cited from earlier work
[3] = tested on: rat model of stroke; assay: transient MCAO in rats: forelimb placement test; type: in vivo, Sprague Dawley rats; conditions: Week 4 and Week 6; 1.5 and 4.5 mg/kg PO twice a day
Procedure: (§1) Altogether 76 adult male Sprague Dawley rats, purchased from Harlan Laboratories, (Israel), and weighing 300-350 g were used for the experiment. Animals were housed at a standard temperature (20-24°C) and in a light-controlled environment (12 hours light / 12 hours dark) with ad libitum access to food and water. Animals were grouped as follows: • Group 1M: 20 tMCAO animals treated twice-a-day with vehicle from Day 3 (day 1 being day of stroke surgery) to Day 42 (via PO gavage) • Group 2M: 22 tMCAO animals treated twice-a-day with VX-745 (1.5 mg/kg) from Day 3 (day 1 being day of stroke surgery) to Day 42 (via PO gavage) • Group 3M: 21 tMCAO animals treated twice-a-day with VX-745 (4.5 mg/kg) from Day 3 (day 1 being day of stroke surgery) to Day 42 (via PO gavage)
Transient middle cerebral artery occlusion was performed according to the method described in R. Schmid-Elsaesser et al., Stroke, 29(10):2162-2170 (1998). The right Common Carotid Artery (CCA) was exposed through a midline neck incision and carefully dissected free from surrounding nerves and fascia - from its bifurcation to the base of the skull. The occipital artery branches of the ECA (External Carotid Artery) were then isolated, and these branches were dissected and coagulated. The ECA was dissected further distally and coagulated along with the terminal lingual and maxillary artery branches, which was then divided. […]

[4] = tested on: rat model of stroke; assay: transient MCAO in rats: neurological scoring (Neuroscore, mNSS); type: in vivo, Sprague Dawley rats
Procedure: as §1
Transient middle cerebral artery occlusion was performed according to the method described in R. Schmid-Elsaesser et al., Stroke, 29(10):2162-2170 (1998). The right Common Carotid Artery (CCA) was exposed through a midline neck incision and carefully dissected free from surrounding nerves and fascia - from its bifurcation to the base of the skull. The occipital artery branches of the ECA (External Carotid Artery) were then isolated, and these branches were dissected and coagulated. The ECA was dissected further distally and coagulated along with the terminal lingual and maxillary artery branches, which was then divided. The ICA (Internal Carotid Artery) was isolated and carefully separated from the adjacent vagus nerve, and the pterygopalatine artery was ligated close to its origin with a 5-0 nylon suture (SMI, Belgium). Next, a 4-0 silk suture was tied loosely around the mobilized ECA stump, and a 4 cm length of 4-0 monofilament nylon suture (the tip of the suture was blunted by using a flame, and the suture was coated with polylysine, prior to insertion) was inserted through the proximal ECA into the ICA and thence into the circle of Willis, effectively occluding the MCA. The surgical wound was closed and the animals were returned to their cages to recover from anesthesia. […]

[5] = transient MCAO in rats: mortality and clinical signs; type: in vivo
Procedure: Animals were handled at a minimum for three days before the surgery. Baseline measures were taken before stroke was induced. Stroke surgery occurred on Day 1. On Day 2, 24 hours post-stroke surgery, Neuroscore testing was performed. Only animals reaching and exceeding Neuroscore criteria was included in the study. […] Behavioral tests for all groups were conducted on weeks 4 and 6. Animals were sacrificed on Day 44 and brains were harvested.

[6] = brain versus blood drug concentration in pre-clinical studies; type: in vivo
[7] = tested on: rat model of stroke; assay: transient MCAO in rats: stepping test; type: in vivo, Sprague Dawley rats; conditions: Week 4 up to Week 6; 1.5 and 4.5 mg/kg PO twice a day
Procedure: as §1
(§2) Transient middle cerebral artery occlusion was performed according to the method described in R. Schmid-Elsaesser et al., Stroke, 29(10):2162-2170 (1998). […]
Stepping Test. […] The animal was held with its hind limbs fixed in one hand and the forelimb, not to be monitored, in the other, while the unrestrained fore-paw touches the table. The number of adjusting steps were counted while the animal was moved sideways along the table surface (85 cm during approximately five seconds), in the forehand & backhand direction for both forelimbs. […]

[8] = tested on: cytokine signaling; conditions: relative to IC50 for cytokine production; Alam 2015; cited from earlier work
[9] = tested on: IL-1β; assay: transient MCAO in rats: IL-1β ELISA of brain at study termination; type: in vivo, Sprague Dawley rats; conditions: study termination (Day 44); right minus left hemisphere; trend to lower concentrations in treated groups
Description: The brains of all animals were harvested on Day 44. Rats were sacrificed by CO2 inhalation. Brains were harvested from all animals in each group, divided to left and right hemisphere, weighed, and snap frozen.
Brains were harvested at study termination. Each brain was dissected into two hemispheres and each hemisphere was weighed and enclosed into tubes marked Left or Right. Each tube was immediately frozen in liquid nitrogen and stored at (-80)°C. The tissues were defrosted and homogenized in 1 ml / 200 mg tissue of 20mM Tris-HCL pH 7.4 containing a protease inhibitor cocktail (50 µl/ml). Samples were centrifuged at 10,000 g for 15 min at 4°. Clear supernatants were aliquoted (150 µl/aliquot) and stored at (-80)°C until EILSA assays were performed. ELISA assay was executed according to kit instructions. Standards and samples were tested in duplicates.
Following study termination, animals were also tested for IL-1β brain levels using the ELISA system (see Figure 8 for standard curves). The variability of the results was too large to allow definitive conclusions. All the results below the Lower Limit of Quantification (LLOQ) were assigned the LLOQ value of 5pg/ml. Then, results for the uninjured left side were subtracted from the results of the right side. The distribution for individual rats is given in the figure below (n=18 in each of the study groups) (Figure 9).

[10] = treatment of rheumatoid arthritis; cited from earlier work
[11] = transient MCAO in rats: body weight monitoring; type: in vivo, Sprague Dawley rats; conditions: through the study; 1.5 and 4.5 mg/kg PO twice a day versus vehicle
Procedure: as §1
Animals were handled at a minimum for three days before the surgery. Baseline measures were taken before stroke was induced. Stroke surgery occurred on Day 1. On Day 2, 24 hours post-stroke surgery, Neuroscore testing was performed. Only animals reaching and exceeding Neuroscore criteria was included in the study. On Days 3-42, treatment with vehicle or VX-745 was administered twice a day for 40 days via PO (oral) gavage for all groups. Behavioral tests for all groups were conducted on weeks 4 and 6. Animals were sacrificed on Day 44 and brains were harvested. […]

[12] = tested on: rat model of stroke; assay: transient MCAO in rats: body swing test; type: in vivo, Sprague Dawley rats; conditions: particularly in the 4.5 mg/kg dose group
Procedure: as §1, §2
Body Swing Test. […] A swing was recorded whenever the rat moved its head out of the vertical axis to either side. Before attempting another swing, the rat had must return to the vertical position for the next swing to be counted. Twenty (20) total swings were counted. […] Body swing scores were expressed as a percentage of rightward over total swings. […]

SMILES | effect on recovery from neurologic deficit [1] | whole blood IC50 [2] | forelimb placement test, sensory motor improvement versus vehicle treated control group [3] | neuroscore, difference between the two doses ([4]; 1.5 mg/kg versus 4.5 mg/kg PO twice a day (Figure 2)) | neuroscore delta (change from Day 2 to actual Week) versus vehicle treated control group ([4]; Week 4 or Week 6, 1.5 and 4.5 mg/kg PO twice a day, Day 3 to Day 42) | absolute neuroscore versus vehicle treated control group ([4]; Weeks 4 and 6, 1.5 and 4.5 mg/kg PO twice a day, Day 3 to Day 42, start 48 hours after reperfusion) | rats that died after treatment initiation ([5]; 1.5 mg/kg group (2M), within two weeks of treatment initiation) | general clinical signs, differences between groups ([5]; 1.5 and 4.5 mg/kg PO twice a day versus vehicle) | drug concentrations in the brain compared with the blood [6] | stepping test, sensory motor deficit (number of steps, left forelimb) versus vehicle treated control group [7] | IC50 for inhibition of cytokine signaling [8] | IL-1β levels in the brain, differences between groups [9] | mean blood concentration [10] | body weight, differences between groups [11] | body swing test, outcome [12]
C[S+]([O-])c1ccc(-c2nc(-c3ccc(F)cc3)c(-c3ccncc3)[nH]2)cc1 (stereo not drawn) [SB203850] | no significant effect | – | – | – | – | – | – | – | – | – | – | – | – | – | –
O=c1ncn2nc(Sc3ccc(F)cc3F)ccc2c1-c1c(Cl)cccc1Cl [VX-745] | – | 0.065 to 0.08 µg/mL | Statistically significant differences | statistically significant difference | statistically significant difference | statistically significant difference | one | no observed differences | approximately two-fold | Statistically significant differences | half that for cytokine production | No statistically significant differences | approximately 75 ng/mL | No statistically significant differences | near normalization
